Source: ChEMBL document CHEMBL4311957, “Recent advances in natural antifungal flavonoids and their derivatives” (Bioorg Med Chem Lett, 2019)
≈ marks a conversion by molar mass, not a printed value.

Key:
[1] = system: Candida albicans; test: Antifungal activity against Candida albicans; type: functional, organism-based
[2] = system: Aspergillus fumigatus; test: Fungicidal activity against Aspergillus fumigatus ATTC 26934 after 48 hrs; type: functional; details: ATTC 26934, 48 h
[3] = system: Candida parapsilosis; test: Antifungal activity against Candida parapsilosis; type: functional; details: Lodderomyces parapsilosis
[4] = system: Candida albicans; test: Antifungal activity against FLC-resistant Candida albicans; type: functional
[5] = system: Nakaseomyces glabratus; test: Antifungal activity against Candida glabrata 510 by microdilution method; type: functional
[6] = system: Nakaseomyces glabratus; test: Antifungal activity against Candida glabrata 587 by microdilution method; type: functional
[7] = system: Trichophyton rubrum; test: Antifungal activity against Trichophyton rubrum NBRC 5467 by microdilution method; type: functional
[8] = system: Candida albicans; test: Antifungal activity against Candida albicans NBRC 1385 by microdilution method; type: functional
[9] = system: Pichia kudriavzevii; test: Antifungal activity against Candida krusei 168 by microdilution method; type: functional
[10] = system: Pichia kudriavzevii; test: Antifungal activity against Candida krusei ATCC 6258; type: functional
[11] = system: Pichia kudriavzevii; test: Antifungal activity against Candida krusei CK25; type: functional
[12] = system: Pichia kudriavzevii; test: Antifungal activity against Candida krusei; type: functional
[13] = system: Nakaseomyces glabratus; test: Antifungal activity against Candida glabrata 482 by microdilution method; type: functional
[14] = system: Candida tropicalis; test: Antibiofilm activity against Candida tropicalis by CSLM based method; type: functional
[15] = system: Candida parapsilosis; test: Antifungal activity against Candida parapsilosis 96 by microdilution method; type: functional; details: Lodderomyces parapsilosis
[16] = system: Candida parapsilosis; test: Antifungal activity against Candida parapsilosis ATCC 22014; type: functional; details: Lodderomyces parapsilosis
[17] = system: Candida albicans; test: Antifungal activity against Candida albicans 501 by microdilution method; type: functional
[18] = system: Candida albicans; test: Antibiofilm activity against Candida albicans by CSLM based method; type: functional
[19] = system: Nakaseomyces glabratus; test: Antifungal activity against Candida glabrata 531 by microdilution method; type: functional
[20] = system: Nakaseomyces glabratus; test: Antifungal activity against Candida glabrata WT-5; type: functional
[21] = system: Trichophyton mentagrophytes; test: Antifungal activity against Trichophyton mentagrophytes IFM 46027 by microdilution method; type: functional
[22] = system: Candida tropicalis; test: Antifungal activity against Candida tropicalis 166 by microdilution method; type: functional
[23] = system: Candida albicans; test: Antifungal activity against Candida albicans 498 by microdilution method; type: functional
[24] = system: Nakaseomyces glabratus; test: Antifungal activity against Candida glabrata; type: functional
[25] = system: Nakaseomyces glabratus; test: Antifungal activity against Candida glabrata ATCC 90030; type: functional
[26] = system: Nakaseomyces glabratus; test: Antifungal activity against Candida glabrata 493 by microdilution method; type: functional
[27] = system: Candida albicans; test: Antifungal activity against Candida albicans 53 by microdilution method; type: functional
[28] = system: Nakaseomyces glabratus; test: Antifungal activity against Candida glabrata 507 by microdilution method; type: functional
[29] = system: Aspergillus fumigatus; test: Antifungal activity against Aspergillus fumigatus NBRC 4400 by microdilution method; type: functional
[30] = system: Candida albicans; test: Antifungal activity against Candida albicans ATCC 10231 by microdilution method; type: functional
[31] = system: Candida parapsilosis; test: Antifungal activity against Candida parapsilosis 90/2224; type: functional; details: Lodderomyces parapsilosis
[32] = system: Nakaseomyces glabratus; test: Antifungal activity against Candida glabrata after 48 hrs by checkerboard method; type: functional
[33] = system: Candida albicans; test: Antifungal activity against Candida albicans clinical isolates after 48 hrs by checkerboard method; type: functional
[34] = system: Candida albicans; test: Antifungal activity against Candida albicans SC 5314 after 48 hrs by checkerboard method; type: functional; details: SC 5314, 48 h
[35] = system: Candida albicans; test: Antifungal activity against Candida albicans ATCC 90028 after 18 hrs by two-fold microdilution method; type: functional; details: ATCC 90028, 18 h
[36] = system: Pichia kudriavzevii; test: Antifungal activity against Candida krusei ATCC 6258 after 18 hrs by two-fold microdilution method; type: functional; details: ATCC 6258, 18 h
[37] = system: Candida parapsilosis; test: Antifungal activity against Candida parapsilosis ATCC 22019 after 18 hrs by two-fold microdilution method; type: functional; details: Lodderomyces parapsilosis, ATCC 22019, 18 h
[38] = system: Nakaseomyces glabratus; test: Antifungal activity against Candida glabrata ATCC 90030 after 18 hrs by two-fold microdilution method; type: functional; details: ATCC 90030, 18 h
[39] = system: Candida tropicalis; test: Antifungal activity against FLC-resistant Candida tropicalis; type: functional
[40] = system: Candida albicans; test: Antifungal activity against Candida albicans ATCC 44859 after 24 to 48 hrs; type: functional
[41] = Inhibition of fatty acid synthase in Trichophyton rubrum ATCC MYA3108
[42] = system: Trichophyton rubrum; test: Antifungal activity against Trichophyton rubrum deltaTruMDR2 by CLSI-based microdilution method; type: functional
[43] = system: Aspergillus fumigatus; test: Antifungal activity against Aspergillus fumigatus; type: functional
[44] = system: Trichophyton rubrum; test: Antifungal activity against Trichophyton rubrum ATCC MYA3108 by CLSI-based microdilution method; type: functional
[45] = system: Cryptococcus neoformans; test: Antifungal activity against Cryptococcus neoformans by CLSI-based microdilution method; type: functional
[46] = system: Candida tropicalis; test: Antifungal activity against FLC-resistant Candida tropicalis in presence of FLC; type: functional

`O=c1c(O[C@@H]2O[C@@H](CO)[C@H](O)[C@H]2O)c(-c2ccc(O)c(O)c2)oc2cc(O)cc(O)c12` [AVICULARIN] showed an MIC [1] of 2 to 32 µg/mL (≈ 4.6 to 73.7 µM), an MIC [2] of 2 to 16 µg/mL (≈ 4.6 to 36.8 µM) and an MIC [3] of 8 to 32 µg/mL (≈ 18.4 to 73.7 µM).
With `O=c1cc(-c2ccccc2)oc2cc(O)c(O)c(O)c12` [BAICALEIN] the MIC [4] was 13 to 26 µg/mL (≈ 48.1 to 96.2 µM), the MIC [5] was 1.9 µg/mL (≈ 7.03 µM) and the MIC [6] was 1.9 µg/mL (≈ 7.03 µM). The MIC [7] was 120 µM (≈ 32.4 µg/mL), the MIC [8] was 30 µM (≈ 8.11 µg/mL) and the MIC [9] was 21 µg/mL (≈ 77.7 µM). It also gave an MIC [10] of 2.7 µg/mL (≈ 9.99 µM), an MIC [11] of 2.7 µg/mL (≈ 9.99 µM) and an MIC [12] of 2.7 µg/mL (≈ 9.99 µM). For the same compound, the MIC [13] was 1.9 µg/mL (≈ 7.03 µM), the MIC [14] was 52 to 104 µg/mL (≈ 192 to 385 µM) and the MIC [15] was 5.2 to 13 µg/mL (≈ 19.2 to 48.1 µM). For the same compound, the MIC50 [15] was 13 to 104 µg/mL (≈ 48.1 to 385 µM), the MIC [16] was 5.4 µg/mL (≈ 20 µM) and the MIC [17] was 10.4 µg/mL (≈ 38.5 µM). For the same compound, the MIC [1] was 5.4 µg/mL (≈ 20 µM), the MIC50 [18] was 4 to 32 µg/mL (≈ 14.8 to 118 µM) and the MIC [19] was 1.9 µg/mL (≈ 7.03 µM). It also gave an MIC [20] of 52.7 µg/mL (≈ 195 µM), an MIC [21] of 60 µM (≈ 16.2 µg/mL) and an MIC [22] of 10.4 µg/mL (≈ 38.5 µM). The MIC50 [22] was 13 to 104 µg/mL (≈ 48.1 to 385 µM), the MIC [3] was 5.4 µg/mL (≈ 20 µM) and the MIC [23] was 10.4 µg/mL (≈ 38.5 µM). It also gave an MIC [24] of 2.7 µg/mL (≈ 9.99 µM), an MIC [25] of 52.7 µg/mL (≈ 195 µM) and an MIC [26] of 1.9 µg/mL (≈ 7.03 µM). For the same compound, the MIC [27] was 10.4 µg/mL (≈ 38.5 µM), the MIC [28] was 1.9 µg/mL (≈ 7.03 µM) and the MIC [29] was 230 µM (≈ 62.2 µg/mL). It also gave an MIC [30] of 10.4 µg/mL (≈ 38.5 µM) and an MIC [31] of 5.4 µg/mL (≈ 20 µM).
With `O=C(O)[C@H]1O[C@@H](Oc2cc3oc(-c4ccccc4)cc(=O)c3c(O)c2O)[C@H](O)[C@@H](O)[C@@H]1O` [BAICALIN] the MIC [32] was 250 µg/mL, the MIC [33] was 500 µg/mL and the MIC [34] was 500 µg/mL.
With `CC1(C)C=Cc2c(cc(O)c3c(=O)c(-c4ccc(O)cc4)coc23)O1` [DERRONE] the MIC [35] was 7.81 µg/mL (≈ 23.2 µM), the MIC [36] was 7.81 µg/mL (≈ 23.2 µM) and the MIC [37] was 7.81 µg/mL (≈ 23.2 µM). The MIC [38] was 7.81 µg/mL (≈ 23.2 µM).
`O=C(O[C@@H]1Cc2c(O)cc(O)cc2O[C@@H]1c1cc(O)c(O)c(O)c1)c1cc(O)c(O)c(O)c1` [EPIGALOCATECHIN GALLATE] gave an MIC [39] of no more than 1 µg/mL.
With `OC(Cn1cncn1)(Cn1cncn1)c1ccc(F)cc1F` [FLUCONAZOLE] the MIC [40] was 10.2 µM (≈ 3.12 µg/mL), the IC50 [41] was 68.23 µg/mL (≈ 223 µM) and the MIC [42] was 63 µg/mL (≈ 206 µM). The MIC [1] was 5.1 to 62.5 µg/mL (≈ 16.7 to 204 µM), the MIC [43] was 125 µg/mL (≈ 408 µM) and the MIC [44] was 63 µg/mL (≈ 206 µM).
Compound `O=c1c(O)c(-c2ccc(O)c(O)c2)oc2cc(O)cc(O)c12` [QUERCETIN] has an MIC [5] of 7.8 to 15.8 µg/mL (≈ 25.8 to 52.3 µM), an MIC [6] of 7.8 to 15.8 µg/mL (≈ 25.8 to 52.3 µM) and an MIC [9] greater than 83 µg/mL. It also gave an MIC [45] greater than 125 µg/mL, an MIC [13] of 7.8 to 15.8 µg/mL (≈ 25.8 to 52.3 µM) and an MIC [15] greater than 83 µg/mL. For the same compound, the MIC [17] was greater than 83 µg/mL, the MIC [46] was 16 µg/mL and the MIC [42] was 125 µg/mL (≈ 414 µM). It also gave an MIC [19] of 7.8 to 15.8 µg/mL (≈ 25.8 to 52.3 µM), an MIC [22] greater than 83 µg/mL and an MIC [23] greater than 83 µg/mL. The MIC [39] was no more than 0.5 µg/mL, the MIC [26] was 7.8 to 15.8 µg/mL (≈ 25.8 to 52.3 µM) and the MIC [27] was greater than 83 µg/mL. The MIC [28] was 7.8 to 15.8 µg/mL (≈ 25.8 to 52.3 µM), the MIC [44] was 125 µg/mL (≈ 414 µM) and the MIC [30] was greater than 83 µg/mL.
